Measured values from PubChem BioAssay (NCI).
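Step 1: Grow cells in 96-well plates. Step 2: Expose to compound for 48 hours at 5 concentrations. Step 3: Interpolate endpoints linearly; if unreached, use highest concentration. GI50 = concentration required for 50% inhibition of growth. TGI: concentration producing complete growth inhibition.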

Assays:
Experiment in all cases: DTP human tumour cell line panel, 48 h
[1] = test system: HL-60(TB) leukemia
[2] = test system: BT-549 breast
[3] = test system: CCRF-CEM leukemia
[4] = test system: NCI-H460 lung
[5] = test system: SNB-75 CNS
[6] = test system: SN12C renal
[7] = test system: HCT-116 colon
[8] = test system: SF-295 CNS
[9] = test system: IGROV1 ovarian
[10] = test system: NCI-H23 lung

SMILES	GI50 [1] [µM]	TGI [1] [µM]	GI50 [2] [µM]	TGI [2] [µM]	GI50 [3] [µM]	TGI [3] [µM]	GI50 [4] [µM]	TGI [4] [µM]	GI50 [5] [µM]	TGI [5] [µM]	GI50 [6] [µM]	TGI [6] [µM]	GI50 [7] [µM]	TGI [7] [µM]	GI50 [8] [µM]	TGI [8] [µM]	GI50 [9] [µM]	TGI [9] [µM]	GI50 [10] [µM]	TGI [10] [µM]
C[C@H]1COCCN1c1nc(-c2cnc(N)cc2C(F)F)nc(N2CCOCC2)n1	0.171	97.8	0.098	0.818	0.285	> 50.3	0.113	> 100	0.0355	0.354	0.159	> 100	0.233	> 100	0.119	0.645	0.0364	0.285	0.274	> 100
CCN(CC)S(=O)(=O)c1cccc(-c2ccc3c(NC(=O)C4CC4)n[nH]c3c2)c1	2.17	> 6.25	1.53	> 6.25	1.84	> 6.25	2.08	> 6.25	1.32	> 6.25	3.77	> 6.25	1.92	> 6.25	1.66	> 6.25	3.79	> 6.25	1.86	> 6.25
c1cc(C2CCCCC2)ccc1-c1cnc2nonc2n1	0.318	1.52	1.29	3.25	0.408	> 93.8	1.38	3.64	0.528	1.71	1.1	3.21	0.468	1.93	1.64	4.32	1.13	3.15	1.37	4.02
COc1cccc(N2CCN(c3ncnc4cc[nH]c34)CC2)c1	5.84	74	2.66	26.8	9.61	> 100	7.19	> 100	15.1	60.4	32.6	> 100	3.67	> 100	1.57	43	32.2	> 100	3.47	> 100
O=C(N=Nc1c(Cl)c(O)c2ccccc2c1O)C(=O)Nc1cccc(C(F)(F)F)c1	3.35	10.2	3.74	12.5	2.84	8.77	3.3	12.4	3.06	15.5	1.77	3.79	1.83	3.88	6.05	19.7	2.99	21.4	2.67	10.2
CSc1nnc(-c2cc3c([nH]c4ccccc43)c(-c3cccc(O)c3)n2)n1-c1ccc(C)cc1	3.02	> 100	2.37	9.27	9.4	> 100	3.31	14.6	1.66	5.33	5.83	81.6	4.35	> 100	2.59	9.62	3.62	24.6	5.76	> 100
